Measurements published in patent US7407775B2, “Method for identifying Listeria monocytogenes and culture medium” (Biomerieux S.A., priority 2000, dated 2008).

Experiments:
Type in all cases: cell-based
Design in all cases: key: —: the symbol “-” corresponds to the absence of color or intensity; 0 corresponds to no activity; 0.1 corresponds to a trace of color; 0.5 corresponds to very pale coloration; 1 corresponds to clear but low-intensity coloration; 1.5 corresponds to a degree of coloration intermediate between scores 1 and 2; 2 corresponds to clear coloration of moderate intensity; 2.5 corresponds to a degree of coloration intermediate between scores 2 and 3; 3 corresponds to intense coloration; 3.5 corresponds to a degree of coloration intermediate between scores 3 and 4; 4 corresponds to very intense coloration
[1] = system: Listeria grayi ATCC 19120; experiment: Experiment 1: esterase substrates, same chromogenic marker, fatty acids of different chain lengths; details: 37° C., substrate 250 mg/l
Protocol: (§1) A stock solution of each substrate at a concentration of 40 g/l was made up in a mixture of 40% Dimethylsulfoxide and 60% Polyoxyethylenesorbitan Monolaurate (Tween 20). An appropriate volume was added to three Columbia-type media while cooling to give a final substrate concentration of 250 mg/l. These dishes were divided into three areas and then each area was inoculated with a suspension (density=0.5 McFarland) of microorganisms taken from either the Applicant's own collection or the ATCC. The dishes were incubated for 48 hours at 37° C. The colonies which grew were examined by eye after 24 and 48 hours of incubation. Both the color and the intensity of the color of the colonies were recorded.
(§2) In Table 1 above, as in the following Tables, C represents the color of the colonies after incubation, I represents the intensity of the color, and the symbol “-” corresponds to the absence of color or intensity; finally, IT defines the incubation time. It should be noted that the intensity of the color is scored on an arbitrary scale but one which is consistent for all the biological specimens and media tested. This scale is valid for this experiment as well as all those that follow. It can be defined in the following way: • 0 corresponds to no activity, • 0.1 corresponds to a trace of color, • 0.5 corresponds to very pale coloration, • 1 corresponds to clear but low-intensity coloration, • 1.5 corresponds to a degree of coloration intermediate between scores 1 and 2, • 2 corresponds to clear coloration of moderate intensity, • 2.5 corresponds to a degree of coloration intermediate between scores 2 and 3, • 3 corresponds to intense coloration, • 3.5 corresponds to a degree of coloration intermediate between scores 3 and 4, • 4 corresponds to very intense coloration.

[2] = system: Listeria innocua 166; experiment: as above; details: 37° C., substrate 250 mg/l
Protocol: as §1, §2

[3] = system: Listeria innocua 171; experiment: as above; details: 37° C., substrate 250 mg/l
Protocol: as §1, §2

[4] = system: Listeria ivanovii 025; experiment: as above; details: 37° C., substrate 250 mg/l
Protocol: as §1, §2

[5] = system: Listeria seeligeri 011; experiment: as above; details: 37° C., substrate 250 mg/l
Protocol: as §1, §2

[6] = system: Listeria innocua 166; experiment: Experiment 3: detecting an esterase activity in liquid medium (API-type strips); details: 37° C.
Protocol: as §2
These substrates were lyophilized in the wells of API-type strips (Registered Trademark). Before use, the substrates contained in the wells were resuspended in an agar-free Columbia-type inoculation medium. These wells were then inoculated with a suspension (density=2 McFarland) of microorganisms taken from either the Applicant's own collection or the ATCC. The strips were incubated for 8 hours at 37° C. The colonies which grew were examined by eye after 4, 6 and 8 hours of incubation.
The intensity of the color of the colonies was recorded.

Row | C (color of the colonies) ([2]; IT 48 h) | C (color of the colonies) ([3]; IT 48 h) | C (color of the colonies) ([5]; IT 48 h) | SMILES | C (color of the colonies) ([1]; IT 24 h) | I (intensity of the color) ([1]; IT 24 h) | C (color of the colonies) ([1]; IT 48 h) | I (intensity of the color) ([1]; IT 48 h) | C (color of the colonies) ([2]; IT 24 h) | I (intensity of the color) ([2]; IT 24 h) | I (intensity of the color) ([2]; IT 48 h) | C (color of the colonies) ([3]; IT 24 h) | I (intensity of the color) ([3]; IT 24 h) | I (intensity of the color) ([3]; IT 48 h) | C (color of the colonies) ([4]; IT 24 h) | I (intensity of the color) ([4]; IT 24 h) | C (color of the colonies) ([4]; IT 48 h) | I (intensity of the color) ([4]; IT 48 h) | C (color of the colonies) ([5]; IT 24 h) | I (intensity of the color) ([5]; IT 24 h) | I (intensity of the color) ([5]; IT 48 h) | other results
1 | gray | gray | gray | CCCCCCCC(=O)Oc1c[nH]c2ccc(Br)cc12 [Blue-C8, 5-Bromo-3-indolyl octanoate] | — | — | — | — | gray | 0.3 | 1 | — | — | 0.3 | — | — | — | — | — | — | 0.5 | 
2 | gray | gray | gray | CCCCCCCCC(=O)Oc1c[nH]c2ccc(Br)cc12 [Blue-C9, 5-Bromo-3-indolyl nonanoate] | — | — | — | — | — | — | 0.5 | — | — | 0.3 | — | — | — | — | — | — | 0.5 | 
3 | gray | gray | gray | CCCCCCCCCC(=O)Oc1c[nH]c2ccc(Br)cc12 [Blue-C10, 5-Bromo-3-indolyl decanoate] | — | — | — | — | — | — | 0.5 | — | — | 0.3 | — | — | — | — | — | — | 0.5 | 
4 |  |  |  | CCCCCCCC(=O)Oc1c[nH]c2cc(Cl)c(Br)cc12 [Magenta-C8, 5-Bromo-6-chloro-3-indolyl octanoate] |  |  |  |  |  |  |  |  |  |  |  |  |  |  |  |  |  | I (intensity of the color) ([6]; IT 4 h): —; I (intensity of the color) ([6]; IT 6 h): —; I (intensity of the color) ([6]; IT 8 h): —
5 |  |  |  | CCCCCCCC(=O)Oc1c[nH]c2cc(Cl)ccc12 [Pink-C8, 6-Chloro-3-indolyl octanoate] |  |  |  |  |  |  |  |  |  |  |  |  |  |  |  |  |  | I (intensity of the color) ([6]; IT 4 h): —; I (intensity of the color) ([6]; IT 6 h): —; I (intensity of the color) ([6]; IT 8 h): —
6 |  |  |  | CCCCCCCC(=O)Oc1c[nH]c2ccc(Br)c(Cl)c12 [X-C8, 5-Bromo-4-chloro-3-indolyl octanoate] |  |  |  |  |  |  |  |  |  |  |  |  |  |  |  |  |  | I (intensity of the color) ([6]; IT 4 h): —; I (intensity of the color) ([6]; IT 6 h): —; I (intensity of the color) ([6]; IT 8 h): —
